Assay results reported in ChEMBL document CHEMBL1133779, “A refined 3-dimensional QSAR of cytochrome P450 2C9: computational predictions of drug interactions” (J Med Chem, 2000).

target: T1, Cytochrome P450 2C9 (Homo sapiens, UniProt P11712); test: Binding affinity was measured on Cytochrome P450 2C9; format: ADME
T1 sequence (P11712 whole entry): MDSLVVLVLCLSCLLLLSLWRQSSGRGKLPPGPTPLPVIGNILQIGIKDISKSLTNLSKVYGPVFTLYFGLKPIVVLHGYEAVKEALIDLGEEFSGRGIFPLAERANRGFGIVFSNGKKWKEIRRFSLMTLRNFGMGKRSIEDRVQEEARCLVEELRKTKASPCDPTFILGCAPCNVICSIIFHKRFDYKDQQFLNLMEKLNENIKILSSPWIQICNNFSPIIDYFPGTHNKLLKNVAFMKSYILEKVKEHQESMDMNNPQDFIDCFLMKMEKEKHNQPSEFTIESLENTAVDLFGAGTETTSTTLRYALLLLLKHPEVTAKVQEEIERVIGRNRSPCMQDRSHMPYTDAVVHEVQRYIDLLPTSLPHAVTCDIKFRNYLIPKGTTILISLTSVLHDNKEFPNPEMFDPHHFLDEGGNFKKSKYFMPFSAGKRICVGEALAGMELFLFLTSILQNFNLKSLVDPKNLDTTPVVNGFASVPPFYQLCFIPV

Row | SMILES | Ki
1 | CO[C@@]1(C)C[C@H](c2ccccc2)c2c(c3ccccc3oc2=O)O1 | 1.5 µM
2 | CC1(O)C[C@H](c2ccccc2)c2c(c3ccccc3oc2=O)O1 (stereo partly specified) | 7 µM
3 | CC[C@H](c1ccccc1)c1c(OC)oc2ccccc2c1=O | 14 µM
4 | C[C@@H](O)C[C@H](c1ccccc1)c1c(O)oc2ccccc2c1=O | 3 µM
5 | CC[C@H](c1ccccc1)c1c(OC)c2ccccc2oc1=O | 13 µM
6 | C[C@H](O)C[C@H](c1ccccc1)c1c(O)oc2ccccc2c1=O | 0.4 µM
7 | CO[C@]1(C)C[C@@H](c2ccccc2)c2c(c3ccccc3oc2=O)O1 | 20 µM
8 | CC1(O)C[C@@H](c2ccccc2)c2c(c3ccccc3oc2=O)O1 (stereo partly specified) | 25 µM
9 | CC[C@@H](c1ccccc1)c1c(OC)oc2ccccc2c1=O | 0.1 µM
10 | C[C@@H](O)C[C@@H](c1ccccc1)c1c(O)oc2ccccc2c1=O | 0.1 µM
11 | CC[C@@H](c1ccccc1)c1c(OC)c2ccccc2oc1=O | 6 µM
12 | C[C@H](O)C[C@@H](c1ccccc1)c1c(O)oc2ccccc2c1=O | 3 µM
13 | C#Cc1ccc2c(=O)c(C(C(C)=O)c3ccccc3)c(O)oc2c1 (stereo unspecified) | 1.1 µM
14 | C#Cc1ccc2oc(O)c(C(C(C)=O)c3ccccc3)c(=O)c2c1 (stereo unspecified) | 1.5 µM
15 | [N-]=[N+]=Nc1ccc(S(=O)(=O)Nc2ccnn2-c2ccccc2)cc1 | 0.4 µM
16 | [N-]=[N+]=Nc1ccc2oc(O)c(Cc3c(O)oc4ccc(N=[N+]=[N-])cc4c3=O)c(=O)c2c1 | 3 µM
17 | CO[C@@]1(C)C[C@@H](c2ccccc2)c2c(c3ccccc3oc2=O)O1 (stereo in doubt; 4) | 7 µM
18 | CO[C@@]1(C)C[C@@H](c2ccccc2)c2c(c3ccccc3oc2=O)O1 (stereo in doubt; 6) | 1.1 µM
19 | CC[C@H](c1ccccc1)c1c(O)oc2ccccc2c1=O (stereo in doubt; 8) | 0.5 µM
20 | CC[C@H](c1ccccc1)c1c(O)oc2ccccc2c1=O (stereo in doubt; 9) | 18 µM
21 | COc1c([C@H](CC(C)=O)c2ccccc2)c(=O)oc2ccccc12 (stereo in doubt; 14) | 10 µM
22 | COc1c([C@H](CC(C)=O)c2ccccc2)c(=O)oc2ccccc12 (stereo in doubt; 15) | 2.4 µM

target: T1, Cytochrome P450 2C9; test: Binding affinity for human Cytochrome P450 2C9; format: ADME

Row | Ki | SMILES
23 | 29 µM | COc1oc2ccccc2c(=O)c1[C@H](CC(C)=O)c1ccccc1

target: T1, Cytochrome P450 2C9; test: Binding affinity measured on human cytochrome P450 2C9 (CYP2C9) enzyme

Row | SMILES | Ki
24 | C#Cc1ccc(S(=O)(=O)NC(=O)NCC(C)C)cc1 | 48 µM
25 | CC(=O)c1ccc(S(=O)(=O)Nc2ccnn2-c2ccccc2)cc1 | 2.4 µM
26 | C#Cc1ccc(S(=O)(=O)NC(=O)NCCCC)cc1 | 18 µM
27 | O=S(=O)(Nc1ccnn1-c1ccccc1)c1ccccc1 | 2 µM
28 | Cc1ccc(C)c(OCC(C)(C)C(=O)O)c1 | 15 µM

Next, values leading:

Row | Ki | SMILES
29 | 21 µM | COc1oc2ccccc2c(=O)c1[C@@H](CC(C)=O)c1ccccc1
30 | 6 µM | O=S(=O)(Nc1ccnn1-c1ccccc1)c1ccc(O)cc1
31 | 25 µM | C#Cc1ccc(S(=O)(=O)NC(=O)NCc2ccccc2)cc1
32 | 7 µM | C#Cc1ccc(S(=O)(=O)NC(=O)Nc2ccccc2)cc1
33 | 2 µM | O=C(O)Cc1ccccc1Nc1cc(Cl)ccc1Cl
34 | 3 µM | C#Cc1ccc(S(=O)(=O)Nc2cc(C)on2)cc1
35 | 18 µM | C#Cc1ccc(C2(c3ccccc3)NC(=O)NC2=O)cc1 (stereo unspecified)
36 | 45 µM | CC(C(=O)O)c1ccc(C(=O)c2cccs2)cc1 (stereo unspecified) [SUPROFEN]
